The text below walks through data of publication PMC3933419, “Synthesis and Properties of a Selective Inhibitor of Homeodomain–Interacting Protein Kinase 2 (HIPK2)” (PLoS ONE, 2014).

Where “and” joins values, the source holds several entries; their conditions need not be identical. Equal values may be shown once. Some results are limits rather than exact numbers.

Series [1] has as its target T1, HIPK2 (Homo sapiens, UniProt Q9H2X6).
T1 construct: The source of HIPK2 and of all of the other protein kinases used for specificity assays is as described elsewhere
Description: HIPK2 kinase inhibition assay (33P-ATP, peptide […]). The following applies: 20 µM ATP; in vitro. Format: biochemical. The protocol: The source of HIPK2 and of all of the other protein kinases used for specificity assays is as described elsewhere. […] The reaction was stopped by addition of 5 μl of 0.5 M orthophosphoric acid before spotting aliquots onto phosphocellulose filters. Filters were washed in 75 mM phosphoric acid (5-10 ml/each) four times and then once in methanol and dried before counting.

Series [2] concerns the target T2, CK2 (Rattus norvegicus, UniProt P19139).
T2 construct: Native CK2 and CK1 were purified from rat liver; from tissue; host or cells: rat liver
Description: CK2 phosphorylation assay. It is filed as biochemical. The following applies: 20 µM ATP. The procedure: (§1) Native CK2 and CK1 were purified from rat liver.
(§2) PIM1, CK2, CK1 phosphorylation assays were performed following similar procedures used for HIPK2 except that preincubation was omitted. In detail, PIM1 activity was determined at 100 µM ATP concentration and in the presence of 30 µM synthetic peptide substrate […]. CK2 and CK1 activities were assayed in a buffer containing 50 mM Tris/HCl (pH 7.5), 100 mM NaCl, 12 mM MgCl2, 100 µM specific peptide substrate […] (for CK2), or 200 µM […] (for CK1) and 20 µM [γ-^33P]ATP (500–1000 c.p.m./pmol).

Series [3] deals with T3, PIM1 (Homo sapiens, UniProt P11309).
T3 construct: The source of HIPK2 and of all of the other protein kinases used for specificity assays is as described elsewhere
Description: PIM1 phosphorylation assay. Format: biochemical. The conditions noted are these: 100 µM ATP. The procedure: as §2

For series [4], the system named is CK1. Description: CK1 phosphorylation assay. It is filed as biochemical, rat. The conditions noted are these: 20 µM ATP. The procedure: as §1, §2
Series [5] addresses T1, HIPK2. In words: Kinetic analysis of HIPK2 inhibition (Lineweaver-Burk). It is filed as biochemical. The protocol:
Initial velocities were determined at each of the ATP concentration tested, at 1 mM […] peptide concentration. Km values were calculated either in the absence or in the presence of increasing concentrations of inhibitor, from Lineweaver-Burk double-reciprocal plots of the data. Inhibition constants were then calculated by linear regression analysis of Km/Vmax versus inhibitor concentration plots.

The subject of series [6] is panel of 76 protein kinases. Description: Selectivity parameters (Lorenz curve, Gini coefficient, hit rate) of TBID. Format: biochemical. The protocol:
(§3) Conditions for the activity assays of all other protein kinases tested in selectivity experiments are as described or referenced in [9].
Lorenz curves were derived from the selectivity data. Gini coefficients and hit rates (expressing the percent of kinases inhibited >50% by a given compound) were calculated as described in [25].

Series [7] has as its target T4, endogenous HIPK2 (Homo sapiens, UniProt Q9H2X6).
T4 construct: endogenous in cells; host or cells: HepG2
In words: Activity of HIPK2 immunoprecipitated from treated HepG2 cells. Format: cell-based. The protocol: (§4) HepG2 cells (human hepatocellular carcinoma) were cultured in Dulbecco's modified Eagle's medium (DMEM; Sigma) supplemented with 10% fetal calf serum, 2 mM L-glutamine, 100 unit/ml penicillin and 100 µg/ml streptomycin; CEM cells (human T lymphoblastoid cells) were cultured n RPMI-1640 (Sigma) with the same supplements. Cells were cultured in an atmosphere containing 5% CO2, at 37°C. Treatments with TBID were performed in the same medium but with 1% fetal calf serum; control cells were treated with the solvent (DMSO). Total cell lysates were prepared as in [29].
Alternatively, HIPK2 was immunoprecipitated with 2.5 µl anti-HIPK2 (Epitomics) from 350 µg of total lysate proteins deriving from HepG2 cells either treated or not with TBID following a protocol elsewhere described. An aspecific antibody was used as negative control. Immunoprecipitated HIPK2 activity was measured towards the specific peptide substrate ([…]) at 1.6 mM concentration, for 10 min at 30°C, under the same conditions described above for the in vitro kinase assay. Peptide radioactivity was measured after sample spotting on phospho-cellulose paper, washing and scintillation counting, as in [30], while the amount of HIPK2 immunoprecipitated was evaluated by WB.

In series [8] the test system is HepG2 or CEM cells. Description: Cell viability (MTT) and PARP cleavage. It is filed as cell-based, human. The following applies: 6 h, PARP (Figure 6C). The protocol:
as §4
Cell viability was evaluated by means of MTT (3-(4,5-dimethylthiazol-2-yl)-[…] bromide) reagent; 10^5 cells/100 µl were incubated in a 96-well plate and treated for 6 h as indicated. 1 h before the end of the incubation, 10 µl of MTT solution (5 mg/ml in PBS) was added to each well. Incubations were stopped by addition of 20 µl of lysis solution at pH 4.7, as described elsewhere. Plates were read for OD at λ 590 nm, in a Titertek Multiskan Plus plate reader (Flow Laboratories). Apoptosis was evaluated looking for the cleavage of the caspase substrate PARP with anti-PARP antibody (Roche), recognizing both the full length (116 kDa) and the cleaved fragment (85 kDa) of PARP.

In series [9] the target is CLK2 (Homo sapiens, UniProt P49760). In words: Kinase panel selectivity profiling. It is filed as biochemical. The conditions noted are these: TBID 1 μM, 125 kinase panel, read-out: % activity of the enzyme.
Excerpt: (§5) The source of HIPK2 and of all of the other protein kinases used for specificity assays is as described elsewhere.
as §3

In series [10] the target is EPH-B1 (Homo sapiens, UniProt P54762). In words: Kinase panel selectivity profiling. It is filed as biochemical. The following applies: TBID 1 μM, 125 kinase panel, read-out: % activity of the enzyme.
Excerpt: as §5, §3

The target in series [11] is ERK8 (Homo sapiens, UniProt Q8TD08). In words: Kinase panel selectivity profiling. Format: biochemical. The following applies: TBID 1 μM, 125 kinase panel, read-out: % activity of the enzyme.
Excerpt: as §5, §3

For series [12], the target named is HER4 (Homo sapiens, UniProt Q15303). Description: Kinase panel selectivity profiling. Format: biochemical. The following applies: TBID 1 μM, 125 kinase panel, read-out: % activity of the enzyme.
Excerpt: as §5, §3

Series [13] deals with IGF-1R (Homo sapiens, UniProt P08069). Description: Kinase panel selectivity profiling. Format: biochemical. The conditions noted are these: TBID 1 μM, 125 kinase panel, read-out: % activity of the enzyme.
Excerpt: as §5, §3

The target of series [14] is JNK3 (Homo sapiens, UniProt P53779). Description: Kinase panel selectivity profiling. It is filed as biochemical. The conditions noted are these: TBID 1 μM, 125 kinase panel, read-out: % activity of the enzyme.
Excerpt: as §5, §3

Series [15] has as its target NEK6 (Homo sapiens, UniProt Q9HC98). Description: Kinase panel selectivity profiling. It is filed as biochemical. The following applies: TBID 1 μM, 125 kinase panel, read-out: % activity of the enzyme.
Excerpt: as §5, §3

Series [16] has as its target PKCγ (Homo sapiens, UniProt P05129). Description: Kinase panel selectivity profiling. The conditions noted are these: TBID 1 μM, 125 kinase panel, read-out: % activity of the enzyme. It is filed as biochemical.
Excerpt: as §5, §3

Series [17] has as its target RIPK2 (Homo sapiens, UniProt O43353). In words: Kinase panel selectivity profiling. The following applies: TBID 1 μM, 125 kinase panel, read-out: % activity of the enzyme. It is filed as biochemical.
Excerpt: as §5, §3

In series [18] the target is TTK (Homo sapiens, UniProt P33981). In words: Kinase panel selectivity profiling. Format: biochemical. The conditions noted are these: TBID 1 μM, 125 kinase panel, read-out: % activity of the enzyme.
Excerpt: as §5, §3

Series [19] concerns the target VEG-FR (Homo sapiens, UniProt P17948). In words: Kinase panel selectivity profiling. Format: biochemical. The following applies: TBID 1 μM, 125 kinase panel, read-out: % activity of the enzyme.
Excerpt: as §5, §3

Series [20] concerns the target p38d MAPK (Homo sapiens, UniProt O15264). Description: Kinase panel selectivity profiling. Format: biochemical. The following applies: TBID 1 μM, 125 kinase panel, read-out: % activity of the enzyme.
Excerpt: as §5, §3

T4 sequence (Q9H2X6 whole entry): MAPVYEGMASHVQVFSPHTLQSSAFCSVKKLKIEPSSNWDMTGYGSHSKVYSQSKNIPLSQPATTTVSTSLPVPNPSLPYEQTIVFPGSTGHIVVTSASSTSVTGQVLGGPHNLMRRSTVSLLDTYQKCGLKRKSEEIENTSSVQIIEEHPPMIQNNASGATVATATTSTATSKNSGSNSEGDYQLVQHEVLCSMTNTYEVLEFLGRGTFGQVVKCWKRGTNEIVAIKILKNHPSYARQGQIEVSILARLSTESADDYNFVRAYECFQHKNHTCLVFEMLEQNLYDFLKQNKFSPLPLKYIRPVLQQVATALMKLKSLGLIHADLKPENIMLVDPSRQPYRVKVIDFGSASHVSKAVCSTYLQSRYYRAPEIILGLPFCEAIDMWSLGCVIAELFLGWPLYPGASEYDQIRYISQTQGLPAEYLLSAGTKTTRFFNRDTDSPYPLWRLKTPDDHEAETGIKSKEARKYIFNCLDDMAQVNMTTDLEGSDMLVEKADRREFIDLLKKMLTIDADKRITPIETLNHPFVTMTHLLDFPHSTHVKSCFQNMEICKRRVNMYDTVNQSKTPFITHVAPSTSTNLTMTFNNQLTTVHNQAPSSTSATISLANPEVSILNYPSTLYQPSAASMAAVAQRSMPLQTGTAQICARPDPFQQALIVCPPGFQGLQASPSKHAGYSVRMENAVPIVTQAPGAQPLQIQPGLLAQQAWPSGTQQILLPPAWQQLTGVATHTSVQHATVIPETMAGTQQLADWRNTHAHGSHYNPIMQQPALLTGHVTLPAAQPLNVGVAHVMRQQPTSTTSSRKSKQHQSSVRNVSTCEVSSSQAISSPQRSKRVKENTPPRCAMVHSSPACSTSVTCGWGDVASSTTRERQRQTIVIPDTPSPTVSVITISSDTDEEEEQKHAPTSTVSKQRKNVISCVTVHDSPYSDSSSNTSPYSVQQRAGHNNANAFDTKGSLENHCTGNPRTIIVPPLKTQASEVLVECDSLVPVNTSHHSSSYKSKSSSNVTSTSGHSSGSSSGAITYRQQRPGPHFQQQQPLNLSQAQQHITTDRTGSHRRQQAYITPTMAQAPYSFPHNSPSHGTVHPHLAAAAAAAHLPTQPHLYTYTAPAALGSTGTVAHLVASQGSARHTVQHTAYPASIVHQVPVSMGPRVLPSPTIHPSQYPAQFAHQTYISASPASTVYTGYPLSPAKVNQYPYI
T1 sequence (Q9H2X6 whole entry): as above
ERK8, sequence (Q8TD08 whole entry): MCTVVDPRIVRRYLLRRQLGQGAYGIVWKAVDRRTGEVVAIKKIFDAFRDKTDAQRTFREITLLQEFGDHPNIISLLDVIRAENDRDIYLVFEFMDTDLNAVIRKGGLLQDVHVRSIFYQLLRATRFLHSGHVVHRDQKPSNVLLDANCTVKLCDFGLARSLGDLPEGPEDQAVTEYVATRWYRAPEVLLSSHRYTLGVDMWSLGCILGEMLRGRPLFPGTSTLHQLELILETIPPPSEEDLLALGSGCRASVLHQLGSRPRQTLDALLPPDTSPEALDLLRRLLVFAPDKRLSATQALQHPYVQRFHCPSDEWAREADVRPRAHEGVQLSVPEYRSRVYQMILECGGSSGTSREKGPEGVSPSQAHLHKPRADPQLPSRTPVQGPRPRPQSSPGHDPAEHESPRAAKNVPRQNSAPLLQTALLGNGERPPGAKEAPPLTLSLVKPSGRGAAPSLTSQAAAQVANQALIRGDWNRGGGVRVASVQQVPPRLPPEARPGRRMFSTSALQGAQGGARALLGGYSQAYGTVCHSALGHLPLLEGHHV
TTK, sequence (P33981 whole entry): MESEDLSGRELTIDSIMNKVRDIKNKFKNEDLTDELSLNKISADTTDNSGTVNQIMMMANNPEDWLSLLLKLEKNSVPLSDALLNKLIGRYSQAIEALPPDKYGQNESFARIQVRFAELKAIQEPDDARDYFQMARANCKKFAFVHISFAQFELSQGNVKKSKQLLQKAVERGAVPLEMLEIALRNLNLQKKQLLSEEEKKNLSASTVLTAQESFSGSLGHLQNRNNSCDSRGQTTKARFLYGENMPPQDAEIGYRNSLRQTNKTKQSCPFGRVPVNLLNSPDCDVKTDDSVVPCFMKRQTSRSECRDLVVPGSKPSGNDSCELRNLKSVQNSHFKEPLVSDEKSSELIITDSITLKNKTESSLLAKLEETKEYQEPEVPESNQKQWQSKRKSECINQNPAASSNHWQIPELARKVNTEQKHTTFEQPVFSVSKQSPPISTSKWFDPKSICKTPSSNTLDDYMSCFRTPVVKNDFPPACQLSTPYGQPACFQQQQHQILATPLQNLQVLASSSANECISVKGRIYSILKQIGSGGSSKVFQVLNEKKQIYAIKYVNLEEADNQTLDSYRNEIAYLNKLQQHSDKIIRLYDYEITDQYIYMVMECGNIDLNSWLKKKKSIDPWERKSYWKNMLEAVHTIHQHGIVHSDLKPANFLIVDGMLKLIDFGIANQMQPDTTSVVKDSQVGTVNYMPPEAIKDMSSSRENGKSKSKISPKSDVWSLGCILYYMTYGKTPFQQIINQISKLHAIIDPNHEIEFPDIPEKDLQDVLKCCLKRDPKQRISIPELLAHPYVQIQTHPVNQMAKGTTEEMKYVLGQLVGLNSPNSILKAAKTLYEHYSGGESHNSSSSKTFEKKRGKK
HER4, sequence (Q15303 26-1308): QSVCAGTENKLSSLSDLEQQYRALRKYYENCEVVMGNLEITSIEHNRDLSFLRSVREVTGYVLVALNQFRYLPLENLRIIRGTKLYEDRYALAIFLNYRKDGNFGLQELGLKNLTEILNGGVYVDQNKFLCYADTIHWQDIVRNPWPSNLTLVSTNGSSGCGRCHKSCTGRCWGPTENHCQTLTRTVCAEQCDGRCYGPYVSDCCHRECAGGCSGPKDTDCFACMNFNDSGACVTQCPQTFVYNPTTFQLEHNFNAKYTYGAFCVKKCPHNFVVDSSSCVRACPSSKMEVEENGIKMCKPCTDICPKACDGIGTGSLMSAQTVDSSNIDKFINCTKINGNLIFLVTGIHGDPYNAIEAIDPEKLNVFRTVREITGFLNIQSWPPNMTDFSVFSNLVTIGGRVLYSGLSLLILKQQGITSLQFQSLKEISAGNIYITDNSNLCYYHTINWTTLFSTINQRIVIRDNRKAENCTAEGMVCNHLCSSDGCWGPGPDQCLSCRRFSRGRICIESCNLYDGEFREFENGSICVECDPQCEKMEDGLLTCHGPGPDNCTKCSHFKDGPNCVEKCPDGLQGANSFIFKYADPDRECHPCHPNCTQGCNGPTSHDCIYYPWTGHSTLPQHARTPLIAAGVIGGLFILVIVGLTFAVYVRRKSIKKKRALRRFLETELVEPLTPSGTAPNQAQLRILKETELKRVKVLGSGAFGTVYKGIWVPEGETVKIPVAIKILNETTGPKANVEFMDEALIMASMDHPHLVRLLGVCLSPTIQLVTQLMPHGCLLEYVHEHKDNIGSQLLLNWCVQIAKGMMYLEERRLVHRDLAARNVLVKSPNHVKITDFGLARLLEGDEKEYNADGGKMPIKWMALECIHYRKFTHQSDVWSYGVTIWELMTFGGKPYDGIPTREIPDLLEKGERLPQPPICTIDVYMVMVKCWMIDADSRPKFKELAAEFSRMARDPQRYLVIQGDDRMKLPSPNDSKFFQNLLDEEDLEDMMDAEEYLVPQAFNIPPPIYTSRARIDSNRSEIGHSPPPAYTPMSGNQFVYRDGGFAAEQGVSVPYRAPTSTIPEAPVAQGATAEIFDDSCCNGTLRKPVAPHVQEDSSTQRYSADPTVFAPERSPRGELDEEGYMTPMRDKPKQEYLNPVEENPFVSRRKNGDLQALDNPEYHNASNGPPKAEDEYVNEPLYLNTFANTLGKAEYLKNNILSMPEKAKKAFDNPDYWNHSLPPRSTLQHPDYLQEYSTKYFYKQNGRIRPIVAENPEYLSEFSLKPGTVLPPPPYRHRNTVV
T2 sequence (P19139 whole entry): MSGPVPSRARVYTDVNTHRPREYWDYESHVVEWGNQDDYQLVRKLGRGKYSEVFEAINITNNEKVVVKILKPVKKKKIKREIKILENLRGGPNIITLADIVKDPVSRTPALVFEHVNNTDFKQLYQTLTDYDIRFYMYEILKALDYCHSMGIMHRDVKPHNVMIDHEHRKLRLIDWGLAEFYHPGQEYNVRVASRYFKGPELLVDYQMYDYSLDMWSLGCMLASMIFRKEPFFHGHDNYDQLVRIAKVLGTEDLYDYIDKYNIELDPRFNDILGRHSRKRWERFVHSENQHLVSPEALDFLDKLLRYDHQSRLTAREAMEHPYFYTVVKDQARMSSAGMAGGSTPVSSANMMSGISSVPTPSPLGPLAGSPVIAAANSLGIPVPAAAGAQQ
T2 sequence (P67874 whole entry partner): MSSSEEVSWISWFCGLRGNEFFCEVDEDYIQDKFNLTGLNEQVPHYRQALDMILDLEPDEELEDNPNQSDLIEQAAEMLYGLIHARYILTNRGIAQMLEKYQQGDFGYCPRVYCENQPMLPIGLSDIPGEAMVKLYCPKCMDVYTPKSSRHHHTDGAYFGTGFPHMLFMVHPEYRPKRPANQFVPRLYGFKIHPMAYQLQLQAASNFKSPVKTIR
p38d MAPK, sequence (O15264 whole entry): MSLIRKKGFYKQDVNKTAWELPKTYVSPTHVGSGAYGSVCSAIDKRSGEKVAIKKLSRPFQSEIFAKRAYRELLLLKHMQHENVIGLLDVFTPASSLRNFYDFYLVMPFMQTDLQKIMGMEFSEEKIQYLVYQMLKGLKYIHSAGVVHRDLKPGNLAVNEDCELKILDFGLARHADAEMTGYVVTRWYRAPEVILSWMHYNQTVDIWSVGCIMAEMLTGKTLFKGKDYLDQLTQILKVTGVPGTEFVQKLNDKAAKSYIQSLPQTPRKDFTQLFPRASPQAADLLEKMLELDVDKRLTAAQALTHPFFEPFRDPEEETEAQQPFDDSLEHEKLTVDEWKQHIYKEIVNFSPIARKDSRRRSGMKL

Usually Ki stands for the dissociation constant of the complex between target and ligand, obtained from inhibition or displacement. Lower therefore signals tighter binding. In the case of `O=C1c2c(Br)c(Br)c(Br)c(Br)c2C(=O)N1c1ncc[nH]1` [TBID, 4,5,6,7-Tetrabromo-2-(1H-imidazol-2-yl)isoindoline-1,3-dione], the IC50 was 0.33 µM in series [1]; 5.5 µM in series [2]; above 40 µM in series [3]; above 40 µM in series [4]; ~50 µM and 50 µM in series [7] (HIPK2 activity in cells treated with TBID, read-out: IC50 in cells (concentration required for half maximal inhibition)). Further, in [5], the Ki came out at 0.2 µM. Moreover, the “mode of inhibition of HIPK2” value in series [5] (with respect to ATP) is given as “competitive with respect to ATP”. In [6] (10 µM TBID), the “number of kinases inhibited >90%” value was determined as 1. Also, in [6] (10 µM, 76 PKs), the Gini coefficient came out at 0.592. This compound also registered a Hit rate in [6] (10 µM, 76 PKs, kinases inhibited >50%) of 0.10. The “endogenous HIPK2 activity upon cell treatment” value in series [7] (HepG2 cells, increasing concentrations, immunoprecipitated HIPK2) is on record as “reduced in a dose dependent manner”. The cell toxicity entry in series [8] was “devoid of cell toxicity”. Moreover, the activity at 1 µM in [9] was found to be 101%; in [10] it was 96%; in series [11] it was 95%; in series [12], 91%; in series [13] it was 68%; in series [14], 101%. Further, the activity at 1 µM is 105% in series [15]; 117% in series [16]; 102% in series [17]; 92% in series [18]; 115% in [19]; 106% in [20].
